In the NIST ThermoML archive (doi:10.1016/j.fluid.2013.12.017):
Numbers after ± are expanded uncertainties.

Test: molar heat capacity at constant pressure; xn = mol fraction of the nth substance listed
Details: 101 kPa, Liquid, Small sample (50 mg) DSC

CCC(N)(CO)CO [2-amino-2-ethyl-1,3-propanediol] + O
molar heat capacity at constant pressure [J/K/mol]
Details | x1 = 0.1494 | x1 = 0.3002 | x1 = 0.4502 | x1 = 0.5992 | x1 = 0.7505 | x1 = 0.8989 | x1 = 1
303.15 K | 107.2 ± 4.5 | 141.9 ± 6 | 178.1 ± 7.6 | 216.5 ± 9.2 | 260.2 ± 11 | 314.7 ± 13 | 367.5 ± 16
308.15 K | 108.6 ± 4.6 | 143.7 ± 6.1 | 180.3 ± 7.7 | 219.2 ± 9.3 | 263.4 ± 11 | 318.5 ± 14 | 370.5 ± 16
313.15 K | 110 ± 4.7 | 145.5 ± 6.2 | 182.5 ± 7.7 | 221.9 ± 9.4 | 266.6 ± 11 | 322.3 ± 14 | 374.1 ± 16
318.15 K | 111.3 ± 4.7 | 147.3 ± 6.3 | 184.7 ± 7.8 | 224.7 ± 9.5 | 269.9 ± 12 | 325.9 ± 14 | 378 ± 16
323.15 K | 112.7 ± 4.8 | 149.1 ± 6.3 | 186.9 ± 7.9 | 227.4 ± 9.6 | 273.1 ± 12 | 329.6 ± 14 | 381.5 ± 16
328.15 K | 113.8 ± 4.8 | 151 ± 6.4 | 189.1 ± 8 | 230.1 ± 9.8 | 276.4 ± 12 | 333.3 ± 14 | 385.8 ± 16
333.15 K | 115.5 ± 4.9 | 152.8 ± 6.5 | 191.3 ± 8.1 | 232.8 ± 9.9 | 279.6 ± 12 | 337 ± 14 | 389.9 ± 16
338.15 K | 116.8 ± 5 | 154.6 ± 6.6 | 193.5 ± 8.2 | 235.6 ± 10 | 282.8 ± 12 | 340.7 ± 14 | 393.9 ± 17
343.15 K | 118.3 ± 5 | 156.5 ± 6.6 | 195.7 ± 8.3 | 238.3 ± 10 | 286.1 ± 12 | 344.4 ± 15 | 398.6 ± 17
348.15 K | 119.6 ± 5.1 | 158.3 ± 6.7 | 197.9 ± 8.4 | 241 ± 10 | 289.3 ± 12 | 348.3 ± 15 | 403.1 ± 17
353.15 K | 121.3 ± 5.1 | 160.2 ± 6.8 | 200.2 ± 8.5 | 243.8 ± 10 | 292.6 ± 12 | 352 ± 15 | 408.2 ± 17
